“And” between values parts separate entries of the source, which are not always exact repeats. Identical values can stand only once.
Test system: 947758-054-R-J2-PDC spheroid growth, percent test/control
Assay: Anticancer human tumor 947758-054-R-J2-PDC patient-derived colon adenocarcinoma cell line growth inhibition [CLK]
Conditions: spheroids with HUVEC and MSC; for viability, T/C: stronger effect = lower value
Text: A high-throughput screen of multi-cell type tumor spheroids was designed to identify active combinations of […] and targeted small molecules. Complex spheroids include a stromal component modeled by human endothelial cells (HUVEC) and fibroblasts modeled by human mesenchymal stem cells (MSCs). The concentration ranges selected for each drug and investigational agent were based upon clinically achievable concentrations if the clinical Cmax of the agent was known.
Compounds. The drugs and investigational agents: cirtuvivint (SM08502; NSC835563), CC-671 (NSC850746), vemurafenib (NSC761431), tapotoclax (NSC804041), sotorasib (NSC818433), adagrasib (NSC831453), MRTX-1133 (NSC836407), BAY2416964 (NSC825713), copanlisib (NSC816437), inavolisib (NSC800729), abemaciclib (NSC768073), osimertinib (NSC779217), entinostat (NSC756642), eltanexor (KPT-8602, NSC794443), venetoclax (NSC766270), ceralasertib (NSC777638), bortezomib (NSC756655), olaparib (NSC753686), talazoparib (NSC767125), alisertib (NSC759677), peposertib (NSC802822), gemcitabine (NSC613327), 5-fluorouracil (NSC19893), SN-38 (NSC673596), oxaliplatin (NSC266046), paclitaxel (NSC125973), and doxorubicin (NSC123127), were obtained from the National Cancer Institute (NCI) Developmental Therapeutics Program Chemical Repository. The FDA-approved anticancer drug set is available from the Developmental Therapeutics Program at https://dtp.cancer.gov/organization/dscb/obtaining/available plates.htm. […] The stock solutions were prepared in dimethyl sulfoxide (DMSO, Sigma-Aldrich, St. Louis, MO, cat. D2650), except for the platinum complexes which were prepared in saline (Quality Biological, Gaithersburg, MD, cat. 114-055-101), at 800-fold the tested concentration and stored at -70 degrees C prior to their use. All drugs and investigational agents were tested over a range starting from a high concentration at or near the clinical Cmax and decreasing in half-log increments. If the clinical Cmax for an agent had not been determined, the highest concentration tested was 10 microM.
Cell Culture. All cells were maintained in an incubator at 37 degrees C and 5% CO2 with 95% humidity. The PDC lines were cultured according to standard operating procedures established by the NCI PDMR. Briefly, all PDCs were thawed and cultured in Matrigel-coated flasks prepared with a working solution of 1X Ham's F-12 nutrient mix, without supplementation (Invitrogen, Waltham, MA, cat. 11765054), 100 U/mL penicillin-streptomycin (Invitrogen, cat. 15140122), and 2.5% Matrigel (Corning Inc., Corning, NY, cat. 354248) for the first three passages. The 947758-054-R-J2-PDC line was cultured in 6B/Colon 1A media, which includes advanced DMEM/F-12 (Thermo Fisher Scientific, cat. 12634028), 10 mM HEPES (Thermo Fisher Scientific, cat. 15630080), 1X GlutaMAX supplement (Thermo Fisher Scientific, cat. 35050061), 0.1 mg/mL primocin (InvivoGen, cat. ant-pm-2), 10% defined fetal bovine serum, heat inactivated (HyClone Laboratories Inc., cat. SH30070.03HI), 1.25 mM N-Acetyl-L-cysteine (Sigma-Aldrich, cat. A9165), 10 mM nicotinamide (Sigma-Aldrich, cat. N0636), 1X B-27 supplement (Thermo Fisher Scientific, cat. 17504044), 1X N-2 supplement (Thermo Fisher Scientific, cat. 17502048), and 10 microM Y-27632 dihydrochloride (Tocris Bioscience, cat. 1254). The 876862-298-R-J1-PDC was cultured in 6E media, which includes all 6B/Colon 1A media components plus 50% L-WRN conditioned media (ATCC, cat. CRL-3276), 50 ng/mL recombinant human EGF recombinant protein (hEGF; Thermo Fisher Scientific, cat. PHG0311), 10 ng/mL recombinant human fibroblast growth factor 10 (hGFG-10; PeproTech, cat. 100-26), 1 ng/mL recombinant human fibroblast growth factor 2 (hFGF-2; PeproTech, cat. 100-18B), and 1 µM prostaglandin E2 (PGE2; Tocris, cat. 2296). The 227483-062-R1-J1-PDC line was cultured in Panc media, containing all 6E components except hFGF-2, with the addition of 500 nM SB-431542 (Selleckchem, cat. S1067) and 10 nM gastrin (Tocris, cat. 3006). […]
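Note: spheroids exposed to compounds for one week before readout.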
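Throughout, for viability, T/C: 100% = DMSO vehicle control wells.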

In the case of C#Cc1c(F)ccc2cc(O)cc(-c3ncc4c(N5CC6CCC(C5)N6)nc(OCC56CCCN5CC(F)C6)nc4c3F)c12 (centres undefined), the viability, T/C (compound 0.0316 µM) is reported as 97% and 82.7%, the viability, T/C (compound 0.1 µM) is reported as 90.4% and 83.7% and the viability, T/C (compound 0.316 µM) is reported as 100% and 88%. The viability, T/C (compound 1 µM) was 80% and 85.2%, the viability, T/C (compound 3.16 µM) was 87.3% and 82.6% and the viability, T/C (compound 10 µM) was 87.5% and 88%. It also gave an IC50 (curve of compound) of over 10000 nM.
For C=CC(=O)Nc1cc(Nc2nccc(-c3cn(C)c4ccccc34)n2)c(OC)cc1N(C)CCN(C)C + CNC(=O)c1ccc(Nc2nc(OC3CCCC3)c3c(-c4ccc5nc(C)oc5c4)c[nH]c3n2)c(OC)c1, the IC50 (curve of first compound, second compound 0.0316 µM) was over 300 nM, the IC50 (curve of first compound, second compound 0.1 µM) was over 300 nM and the IC50 (curve of first compound, second compound 0.316 µM) was 251 nM. The IC50 (curve of first compound, second compound 1 µM) was 122 nM, the IC50 (curve of first compound, second compound 3.16 µM) was under 0.949 nM and the IC50 (curve of first compound, second compound 10 µM) was under 0.949 nM. For the same compound, the viability, T/C (second compound 0.0316 µM, first compound 0.000949 µM) was 90%, the viability, T/C (second compound 0.0316 µM, first compound 0.003 µM) was 78.9% and the viability, T/C (second compound 0.0316 µM, first compound 0.00949 µM) was 80.4%. The viability, T/C (second compound 0.0316 µM, first compound 0.03 µM) was 94.6%, the viability, T/C (second compound 0.0316 µM, first compound 0.0949 µM) was 86.2% and the viability, T/C (second compound 0.0316 µM, first compound 0.3 µM) was 64%. For the same compound, the viability, T/C (second compound 0.1 µM, first compound 0.000949 µM) was 102%, the viability, T/C (second compound 0.1 µM, first compound 0.003 µM) was 94.9% and the viability, T/C (second compound 0.1 µM, first compound 0.00949 µM) was 83.7%. It also gave a viability, T/C (second compound 0.1 µM, first compound 0.03 µM) of 87.9%, a viability, T/C (second compound 0.1 µM, first compound 0.0949 µM) of 78.1% and a viability, T/C (second compound 0.1 µM, first compound 0.3 µM) of 52.5%. For the same compound, the viability, T/C (second compound 0.316 µM, first compound 0.000949 µM) was 88.2%, the viability, T/C (second compound 0.316 µM, first compound 0.003 µM) was 81.8% and the viability, T/C (second compound 0.316 µM, first compound 0.00949 µM) was 65.8%. The viability, T/C (second compound 0.316 µM, first compound 0.03 µM) was 96.3%, the viability, T/C (second compound 0.316 µM, first compound 0.0949 µM) was 108% and the viability, T/C (second compound 0.316 µM, first compound 0.3 µM) was 43.1%. For the same compound, the viability, T/C (second compound 1 µM, first compound 0.000949 µM) was 70.2%, the viability, T/C (second compound 1 µM, first compound 0.003 µM) was 53.1% and the viability, T/C (second compound 1 µM, first compound 0.00949 µM) was 47.1%. For the same compound, the viability, T/C (second compound 1 µM, first compound 0.03 µM) was 52%, the viability, T/C (second compound 1 µM, first compound 0.0949 µM) was 62.8% and the viability, T/C (second compound 1 µM, first compound 0.3 µM) was 25.4%. The viability, T/C (second compound 3.16 µM, first compound 0.000949 µM) was 48.9%, the viability, T/C (second compound 3.16 µM, first compound 0.003 µM) was 44.4% and the viability, T/C (second compound 3.16 µM, first compound 0.00949 µM) was 44.8%. It also gave a viability, T/C (second compound 3.16 µM, first compound 0.03 µM) of 44%, a viability, T/C (second compound 3.16 µM, first compound 0.0949 µM) of 39.5% and a viability, T/C (second compound 3.16 µM, first compound 0.3 µM) of 23.1%. It also gave a viability, T/C (second compound 10 µM, first compound 0.000949 µM) of 39.8%, a viability, T/C (second compound 10 µM, first compound 0.003 µM) of 39.5% and a viability, T/C (second compound 10 µM, first compound 0.00949 µM) of 42.7%. The viability, T/C (second compound 10 µM, first compound 0.03 µM) was 35.2%, the viability, T/C (second compound 10 µM, first compound 0.0949 µM) was 20.9% and the viability, T/C (second compound 10 µM, first compound 0.3 µM) was 18.3%.

From PubChem BioAssay AID2060605 (Molecular Pharmacology Branch, DTP, NCI, 2025)
